Legend:
human orexin receptor 2 = human orexin receptor 2 (Homo sapiens (Human), UniProt O43614); assay: Orexin antagonist activity, intracellular calcium FLIPR assay (orexin receptor 2); assay type: cell-based; conditions: RBL-2H3 cells stably expressing human orexin receptor 2; orexin-A at approx. 80% maximal response; 15 min preincubation; read-out: Human Orexin2R IC50
Experimental: (§1) Orexin antagonist activity was determined by measuring changes in intracellular calcium levels using a Ca^2+ sensitive fluorescent dye. The changes in fluorescent signal were monitored by Fluorescent Imaging Plate Reader (FLIPR™) technology available from Molecular Devices, LLC, U.S.A. Orexin mediated increases in intracellular Ca^2+ concentration were readily detected upon activation with orexin-A. Twenty-four hours prior to the assay, RBL-2H3 cells stably expressing either human orexin receptor 1 or human orexin receptor 2 were seeded in cell culture medium in black, clear-bottom 384-well plates (commercially available from Corning Inc., U.S.A.) and grown overnight at 37° C., 5% CO2. On the day of the assay, cell culture media was removed and cells were loaded with Calcium 5 Dye (commercially sold by Molecular Devices, LLC, U.S.A.) for 1 hour at 37° C., 5% CO2. Test compounds (at 10 point half log concentration response curves from 10 μM) were added to cells for 15 minutes prior to the addition of orexin-A to all wells, to achieve a final concentration that produces approximately an 80% maximal response. The IC50 values were determined from ten point concentration response curves. Curves were generated using the average of two wells for each data point. The results obtained are shown in the table below in which ‘NT’ denotes ‘Not Tested’.

human orexin receptor 1 = human orexin receptor 1 (Homo sapiens (Human), UniProt O43613); assay: Orexin antagonist activity, intracellular calcium FLIPR assay (orexin receptor 1); assay type: cell-based; conditions: RBL-2H3 cells stably expressing human orexin receptor 1; orexin-A at approx. 80% maximal response; 15 min preincubation; read-out: Human Orexin1R IC50
Chain of human orexin receptor 1 (O43613 whole entry): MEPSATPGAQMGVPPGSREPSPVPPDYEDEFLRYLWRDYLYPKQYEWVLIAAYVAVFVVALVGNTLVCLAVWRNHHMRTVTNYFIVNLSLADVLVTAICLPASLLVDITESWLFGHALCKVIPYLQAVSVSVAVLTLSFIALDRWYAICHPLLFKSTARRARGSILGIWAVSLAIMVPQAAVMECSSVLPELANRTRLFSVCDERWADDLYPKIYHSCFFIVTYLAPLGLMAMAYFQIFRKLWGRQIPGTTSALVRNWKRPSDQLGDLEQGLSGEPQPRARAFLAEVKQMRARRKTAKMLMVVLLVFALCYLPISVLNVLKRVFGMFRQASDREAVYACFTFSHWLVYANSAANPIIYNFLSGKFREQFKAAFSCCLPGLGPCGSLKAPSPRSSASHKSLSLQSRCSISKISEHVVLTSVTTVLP
Experimental: as §1

Chain of human orexin receptor 2 (O43614 whole entry): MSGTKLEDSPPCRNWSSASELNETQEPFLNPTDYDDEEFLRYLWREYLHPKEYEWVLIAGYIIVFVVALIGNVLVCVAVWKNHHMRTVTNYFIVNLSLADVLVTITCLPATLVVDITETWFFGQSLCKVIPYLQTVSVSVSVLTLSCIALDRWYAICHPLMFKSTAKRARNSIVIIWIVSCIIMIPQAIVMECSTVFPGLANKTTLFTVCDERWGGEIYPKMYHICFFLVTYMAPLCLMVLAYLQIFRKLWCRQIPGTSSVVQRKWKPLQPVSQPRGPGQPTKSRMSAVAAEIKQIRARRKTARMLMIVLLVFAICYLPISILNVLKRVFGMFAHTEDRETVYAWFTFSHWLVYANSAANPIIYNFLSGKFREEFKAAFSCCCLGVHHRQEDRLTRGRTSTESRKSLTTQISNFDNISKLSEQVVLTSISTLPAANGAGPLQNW

| SMILES | IC50 (human orexin receptor 2) [nM] | IC50 (human orexin receptor 1) [nM] |
| --- | --- | --- |
| O=C(N[C@H]1CCC[C@@H]1Nc1nc2ccc(F)cc2s1)c1ncccc1Br [Example 1, 3-Bromo-N-[(1S,2S)-2-[(6-fluoro-1,3-benzothiazol-2-yl)amino]cyclopentyl]-pyridine-2-carboxamide] | > 10000 | 43 |
| COc1cccnc1C(=O)N[C@H]1CCC[C@@H]1Nc1nc2ccc(F)cc2s1 [Example 3, N-[(1S,2S)-2-[(6-Fluoro-1,3-benzothiazol-2-yl)amino]cyclopentyl]-3-methoxypyridine-2-carboxamide] | > 10000 | 170 |
| COc1cccnc1C(=O)N(C)[C@H]1CCC[C@@H]1Nc1nc2ccc(F)cc2s1 [Example 5, N-[(1S,2S)-2-[(6-Fluoro-1,3-benzothiazol-2-yl)amino]cyclopentyl]-3-methoxy-N-methylpyridine-2-carboxamide] | 2800 | 14 |
| O=C(N[C@H]1CCC[C@@H]1Nc1nc2ccc(F)cc2s1)c1ncccc1-n1nccn1 [Example 6, N-[(1S,2S)-2-[(6-Fluoro-1,3-benzothiazol-2-yl)amino]cyclopentyl]-3-(2H-1,2,3-triazol-2-yl)pyridine-2-carboxamide] | > 10000 | 8.6 |
| COc1cccnc1C(=O)N[C@H]1CCC[C@@H]1Nc1nc2ccc(F)cc2o1 [Example 7, N-[(1S,2S)-2-[(6-Fluoro-1,3-benzoxazol-2-yl)amino]cyclopentyl]-3-methoxypyridine-2-carboxamide] | > 10000 | 540 |
| CC(C)Oc1cccnc1C(=O)N[C@H]1CCC[C@@H]1Nc1nc2ccc(F)cc2s1 [Example 8, N-[(1S,2S)-2-[(6-Fluoro-1,3-benzothiazol-2-yl)amino]cyclopentyl]-3-(propan-2-yloxy)pyridine-2-carboxamide] | 3300 | 34 |
| COc1ccc(C)nc1C(=O)N[C@H]1CCC[C@@H]1Nc1nc2ccc(F)cc2s1 [Example 9, N-[(1S,2S)-2-[(6-Fluoro-1,3-benzothiazol-2-yl)amino]cyclopentyl]-3-methoxy-6-methylpyridine-2-carboxamide] | > 10000 | 84 |
| O=C(N[C@H]1CCC[C@@H]1Nc1nc2ccc(F)cc2s1)c1ncccc1-n1cccn1 [Example 10, N-[(1S,2S)-2-[(6-Fluoro-1,3-benzothiazol-2-yl)amino]cyclopentyl]-3-(1H-pyrazol-1-yl)pyridine-2-carboxamide] | > 10000 | 21 |
| O=C(N[C@H]1CCC[C@@H]1Nc1nc2ccc(F)cc2s1)c1ncccc1F [Example 11, 3-Fluoro-N-[(1S,2S)-2-[(6-fluoro-1,3-benzothiazol-2-yl)amino]cyclopentyl]pyridine-2-carboxamide] | > 10000 | 330 |
| O=C(N[C@H]1CCC[C@@H]1Nc1nc2ccc(F)cc2s1)c1ncccc1N1CCCCC1 [Example 12, N-[(1S,2S)-2-[(6-Fluoro-1,3-benzothiazol-2-yl)amino]cyclopentyl]-3-(piperidin-1-yl)pyridine-2-carboxamide] | > 10000 | 42 |

Second part, the compound after the results:

| IC50 (human orexin receptor 2) [nM] | IC50 (human orexin receptor 1) [nM] | SMILES |
| --- | --- | --- |
| > 10000 | 69 | O=C(N[C@H]1CCC[C@@H]1Nc1nc2ccc(F)cc2s1)c1ncccc1N1CCC1 [Example 13, 3-(Azetidin-1-yl)-N-[(1S,2S)-2-[(6-fluoro-1,3-benzothiazol-2-yl)amino]cyclopentyl]pyridine-2-carboxamide] |
| > 10000 | 170 | O=C(N[C@H]1CCC[C@@H]1Nc1nc2ccc(F)cc2s1)c1ncccc1N1CCCC1 [Example 14, N-[(1S,2S)-2-[(6-Fluoro-1,3-benzothiazol-2-yl)amino]cyclopentyl]-3-(pyrrolidin-1-yl)pyridine-2-carboxamide] |
| > 10000 | 150 | COC1CN(c2cccnc2C(=O)N[C@H]2CCC[C@@H]2Nc2nc3ccc(F)cc3s2)C1 [Example 15, N-[(1S,2S)-2-[(6-Fluoro-1,3-benzothiazol-2-yl)amino]cyclopentyl]-3-(3-methoxyazetidin-1-yl)pyridine-2-carboxamide] |
| – | 630 | COc1cccnc1C(=O)N[C@H]1CCC[C@@H]1Nc1cnc2ccccc2n1 [Example 16, 3-Methoxy-N-[(1S,2S)-2-[(quinoxalin-2-yl)amino]cyclopentyl]pyridine-2-carboxamide] |
| 9600 | 210 | COc1ccc(C(F)(F)F)nc1C(=O)N[C@H]1CCC[C@@H]1Nc1nc2ccc(F)cc2s1 [Example 17, N-[(1S,2S)-2-[(6-Fluoro-1,3-benzothiazol-2-yl)amino]cyclopentyl]-3-methoxy-6-(trifluoromethyl)pyridine-2-carboxamide] |
| 8800 | 41 | CCOc1cccnc1C(=O)N[C@H]1CCC[C@@H]1Nc1nc2ccc(F)cc2s1 [Example 18, 3-Ethoxy-N-[(1S,2S)-2[(6-fluoro-1,3-benzothiazol-2-yl)amino]cyclopentyl]pyridine-2-carboxamide] |
| 3600 | 33 | O=C(N[C@H]1CCC[C@@H]1Nc1nc2ccc(F)cc2s1)c1ncccc1OC(F)(F)F [Example 19, N-[(1S,2S)-2-[(6-Fluoro-1,3-benzothiazol-2-yl)amino]cyclopentyl]-3-(trifluoromethoxy)pyridine-2-carboxamide] |
| > 10000 | 100 | O=C(N[C@H]1CCC[C@@H]1Nc1nc2ccc(F)cc2s1)c1ncccc1OC(F)F [Example 20, 3-(Difluoromethoxy)-N-[(1S,2S)-2-[(6-fluoro-1,3-benzothiazol-2-yl)amino]cyclopentyl]pyridine-2-carboxamide] |
| > 10000 | 24 | O=C(N[C@H]1CCC[C@@H]1Nc1nc2ccc(Cl)cc2s1)c1ncccc1-n1nccn1 [Example 21, N-[(1S,2S)-2-[(6-Chloro-1,3-benzothiazol-2-yl)amino]cyclopentyl]-3-(2H-1,2,3-triazol-2-yl)pyridine-2-carboxamide] |
| > 10000 | 300 | O=C(N[C@H]1CCC[C@@H]1Nc1nc2ccc(Cl)cc2s1)c1ncccc1OC(F)F [Example 22, N-[(1S,2S)-2-[(6-Chloro-1,3-benzothiazol-2-yl)amino]cyclopentyl]-3-(difluoromethoxy)pyridine-2-carboxamide] |
| > 10000 | 290 | O=C(N[C@H]1CCC[C@@H]1Nc1nc2ccc(F)cc2o1)c1ncccc1OC(F)F [Example 23, 3-(Difluoromethoxy)-N-[(1S,2S)-2-[(6-fluoro-1,3-benzoxazol-2-yl)amino]cyclopentyl]pyridine-2-carboxamide] |
| > 10000 | 86 | O=C(N[C@H]1CCC[C@@H]1Nc1nc2ccc(F)cc2s1)c1ncccc1-n1ccnn1 [Example 24, N-[(1S,2S)-2-[(6-Fluoro-1,3-benzothiazol-2-yl)amino]cyclopentyl]-3-(1H-1,2,3-triazol-1-yl)pyridine-2-carboxamide] |
| > 10000 | 660 | O=C(N[C@H]1CCC[C@@H]1Nc1nc2ccc(Cl)cc2o1)c1ncccc1OC(F)F [Example 25, N-[(1S,2S)-2-[(6-Chloro-1,3-benzoxazol-2-yl)amino]cyclopentyl]-3-(difluoromethoxy)pyridine-2-carboxamide] |
| – | 910 | CCOc1ccc(C)nc1C(=O)NC1CCCC1Cc1ccc2ccccc2n1 (stereo not drawn) [Example 26, 3-Ethoxy-6-methyl-N-[2-(quinolin-2-ylmethyl)cyclopentyl]pyridine-2-carboxamide] |
| 6000 | 71 | CCOc1ccc(C)nc1C(=O)NC1CCCC1Cc1ccc2ccccc2n1 (stereo not drawn) [Example 27, 3-Ethoxy-6-methyl-N-[2-(quinolin-2-ylmethyl)cyclopentyl]pyridine-2-carboxamide] |

— patent US9790220B2, “Substituted cyclopentanes, tetrahydrofuranes and pyrrolidines as orexin receptor antagonists” (Takeda Pharmaceutical Company Limited, priority 2014, dated 2017)
